Test results as given in patent EP4796530A1 (Biocells (Beijing) Biotech Co., Ltd., priority 2023, dated 2025).
Read-outs that look alike come from different tables or passages of the source.

How the values were obtained:
NLRP3 [1] = target: T1, NLRP3 (Mus musculus, UniProt Q8R4B8); assay: Inhibition of canonical NLRP3 activation (LPS+ATP/Nig) in J774A.1 cells, IL-1β release by ELISA, single concentration; type: cell-based; parameters: The mouse macrophage cell line J774A.1 was used, and LPS was used as the first signal; host or cells: J774A.1 mouse monocyte-macrophage cell line
T1 sequence (Q8R4B8 whole entry): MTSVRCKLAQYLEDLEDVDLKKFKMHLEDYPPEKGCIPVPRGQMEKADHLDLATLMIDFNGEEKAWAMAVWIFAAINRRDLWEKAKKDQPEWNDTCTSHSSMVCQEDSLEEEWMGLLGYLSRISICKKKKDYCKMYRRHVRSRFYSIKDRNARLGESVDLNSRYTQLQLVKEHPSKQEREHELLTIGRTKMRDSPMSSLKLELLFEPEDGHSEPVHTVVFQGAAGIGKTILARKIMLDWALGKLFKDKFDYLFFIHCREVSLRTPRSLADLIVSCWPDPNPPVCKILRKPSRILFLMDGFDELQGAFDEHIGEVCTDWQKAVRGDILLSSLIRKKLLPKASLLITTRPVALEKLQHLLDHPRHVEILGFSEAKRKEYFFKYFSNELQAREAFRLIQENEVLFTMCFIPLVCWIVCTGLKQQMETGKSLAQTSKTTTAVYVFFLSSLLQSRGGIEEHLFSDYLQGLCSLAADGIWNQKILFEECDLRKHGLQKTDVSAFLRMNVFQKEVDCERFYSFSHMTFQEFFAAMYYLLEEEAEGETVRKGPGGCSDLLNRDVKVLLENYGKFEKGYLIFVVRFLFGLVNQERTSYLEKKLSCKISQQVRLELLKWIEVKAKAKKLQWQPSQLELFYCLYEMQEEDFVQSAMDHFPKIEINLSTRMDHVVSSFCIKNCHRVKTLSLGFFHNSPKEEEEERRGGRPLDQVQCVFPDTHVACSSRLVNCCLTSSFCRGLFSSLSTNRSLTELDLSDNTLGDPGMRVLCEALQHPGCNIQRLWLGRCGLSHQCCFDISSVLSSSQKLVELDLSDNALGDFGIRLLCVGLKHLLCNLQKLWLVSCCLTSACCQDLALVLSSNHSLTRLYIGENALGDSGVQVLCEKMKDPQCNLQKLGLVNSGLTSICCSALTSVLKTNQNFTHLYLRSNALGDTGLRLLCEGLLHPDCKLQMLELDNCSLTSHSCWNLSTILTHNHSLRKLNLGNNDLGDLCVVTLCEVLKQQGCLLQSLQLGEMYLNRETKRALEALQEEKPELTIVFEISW
Procedure: J774A.1 cells were plated in a 48-well plate at a density of 1.0×10^6 cells/mL, with 300 µL per well. Subsequently, NLRP3 was activated using LPS+5 mM ATP (adenosine triphosphate) or 10 µM Nig (nigericin). […] ATP was purchased from Sigma, Cat. No.: L2654. Nig was purchased from Shanghai Yuanye Bio-Technology Co., Ltd., Cat. No.: S45490.
Experimental groups: a negative control group, an LPS-alone incubation control group, an LPS+ATP or +Nig positive control group, and an example compound experimental group.
After the plated J774A.1 cells adhering to the plate, the culture medium was replaced. For all the groups except the negative control group, the culture medium was completely replaced with cell culture medium containing 1 µg/mL LPS. The negative control group received cell culture medium. Then, all the groups were incubated overnight. 18 h later, the culture medium was replaced again. The culture medium of the example compound experimental group was completely replaced with cell culture medium containing the compounds; while the negative control group, the LPS-alone incubation control group, and the LPS+ATP/Nig positive control group received cell culture medium. 1 h later, the culture mediums of the LPS+ATP/Nig positive control group and the example compound experimental group were completely replaced with cell culture medium containing 5 mM ATP or 10 µM Nig. 1 h later, the cell supernatants were collected for IL-1β detection.
Therefore, the relative change in the amount of IL-1β release may directly reflect NLRP3 inhibitory effect.

[2] = Mouse pharmacokinetics after intravenous administration (plasma and brain, LC-MS); type: in vivo; conditions: C57 mice, intravenous 5 mg/kg
Procedure: C57 mice were administered intravenously, at a dosage concentration of 5 mg/kg in each group. Retro-orbital blood collection was performed on the mice at 1 min, 30 min, 1 h, and 2 h post-dosing. The collected blood was centrifuged at 3000 rpm for 10 min at 4 °C to obtain plasma. Acetonitrile was added at a 1:3 volume ratio of plasma: acetonitrile to precipitate proteins. After centrifugation, the supernatant was collected and filtered. The concentration of the compound was detected using LC-MS (Agilent 1260-G6125, SIM mode). In addition, 2 h after drug injection, the mice were subjected to cardiac perfusion and then their brains were harvested. Following tissue homogenization and centrifugation, the supernatant was collected. Acetonitrile was added at a 1:3 volume ratio of supernatant: acetonitrile to precipitate proteins. After centrifugation, the supernatant was collected and filtered. The concentration of the compound was detected using LC-MS (Agilent 1260-G6125, SIM mode).
Experimental groups: a vehicle control group, and a dosing group.

NLRP3 [3] = target: T1, NLRP3; assay: Inhibition of APOE peptide-induced NLRP3 activation in J774A.1 cells, IL-1β release; type: cell-based; parameters: The mouse macrophage cell line J774A.1 was used, and LPS was used as the first signal; host or cells: J774A.1 mouse monocyte-macrophage cell line; conditions: J774.A1, 10 µM compound, 30 µg/mL APOE peptide
Procedure: J774A.1 cells were plated in a 48-well plate at a density of 1.0×10^6 cells/mL, with 300 µL per well. Subsequently, NLRP3 was activated by APOE peptide. The cell culture medium comprises: DMEM (brand: Gibco, Cat. No.: C12430500) + 10% fetal bovine serum (brand: Gibco, Cat. No.: 10099-141) + 1% sodium pyruvate (brand: Gibco, Cat. No.: 11360-070) + 1% penicillin-streptomycin solution (brand: Solarbio, Cat. No.: P1400). The J774A.1 mouse monocyte-macrophage cell line was purchased from the Cell Resource Center of the Institute of Basic Medical Sciences of Chinese Academy of Medical Sciences (Resource No. 1101MOU-PUMC000222). APOE2/3 peptide 1-151 was obtained through recombinant protein expression and purification by Biocells (Beijing) Biotech Co., Ltd. The procedures were as follows: the sequence (SEQ ID NO: 1) shown below was inserted into the pET-28A plasmid and transformed into BL-21(DE3) expression strain; the expression of target protein was induced with IPTG at a low temperature; after collecting the bacteria via centrifugation, ultrasonic disruption was performed; and after centrifugation, the supernatant was purified by nickel ion affinity chromatography (AKTA pure), and then the product was concentrated by ultrafiltration and identified by BCA+protein electrophoresis. Sequence: [formula]
Experimental groups: a negative control group, an APOE treatment control group, and an example compound experimental group.
After the plated J774A.1 cells adhering to the plate, the culture medium was replaced. The culture medium of the APOE treatment control group was replaced with cell culture medium containing 30 µg/mL APOE peptide, the culture medium of the example compound experimental group was replaced with culture medium containing 30 µg/mL APOE peptide combined with the compounds, and the negative control group received cell culture medium. Then, all the groups were incubated overnight. 18 h later, the cell supernatants were collected for IL-1β detection.
Activation of NLRP3 by APOE peptide will result in release of mature IL-1β, and the release can be inhibited by NLRP3 inhibitors. Therefore, the relative change in the amount of IL-1β release may directly reflect NLRP3 inhibitory effect.
In this experimental example, effective inhibition refers to a reduction of 70% or more in the release amount, compared with the release amount of the positive control minus the negative control.

[4] = J774.A1, 1 µM compound, LPS + 5 mM ATP or 10 µM Nig, compared with the positive control, read-out: inhibition of IL-1β release

SMILES	inhibition at 1 µM (NLRP3 [1]; [4])	inhibition at 10 µM (NLRP3 [3])	also measured
CN(C)Cc1ccc([N+](=O)[O-])c(S(=O)(=O)NC(=O)Nc2c3c(cc4c2CCC4)CCC3)c1 [Example 11, 5-((dimethylamino)methyl)-N-((1,2,3,5,6,7-hexahydro-s-indacen-4-yl)carbamoyl)-2-nitrobenzenesulfonamide]	> 80%		
COc1c(F)cc(S(=O)(=O)NC(=O)Nc2c3c(cc4c2CCC4)CCC3)cc1CN(C)C [Example 16, 3-((dimethylamino)methyl)-5-fluoro-N-((1,2,3,5,6,7-hexahydro-s-indacen-4-yl)carbamoyl)-4-methoxybenzenesulfonamide]	20 to 80%		
CN1CCc2ccc(S(=O)(=O)NC(=O)Nc3c4c(cc5c3CCC5)CCC4)cc2C1 [Example 29, N-((1,2,3,5,6,7-hexahydro-s-indacen-4-yl)carbamoyl)-2-methyl-1,2,3,4-tetrahydroisoquinoline-7-sulfonamide]			concentration at 120 min ([2]; brain after cardiac perfusion, read-out: brain drug concentration at 120 min): 197 ng/mL; half-life ([2]; plasma): 1.65 h; AUC ([2]; plasma, read-out: area under the curve (AUC) from 1 to 120 min): 14900 ng·h/mL
COc1cc(F)c(S(=O)(=O)NC(=O)Nc2c3c(cc4c2CCC4)CCC3)cc1CN(C)C [Example 20, 5-((dimethylamino)methyl)-2-fluoro-N-((1,2,3,5,6,7-hexahydro-s-indacen-4-yl)carbamoyl)-4-methoxybenzenesulfonamide]	> 80%	≥ 70%	
CN(C)Cc1ccc(F)c(S(=O)(=O)NC(=O)Nc2c3c(cc4c2CCC4)CCC3)c1 [Example 2, 5-((dimethylamino)methyl)-2-fluoro-N-((1,2,3,5,6,7-hexahydro-s-indacen-4-yl)carbamoyl)benzenesulfonamide]	> 80%		
CCN(CC)Cc1cc(S(=O)(=O)NC(=O)Nc2c3c(cc4c2CCC4)CCC3)ccc1OC [Example 13]			inhibition of IL-1β release (NLRP3 [1]; 1 µM compound, LPS + 5 mM ATP or 10 µM Nig, compared with the positive control): no inhibitory effect
COc1ccc(S(=O)(=O)NC(=O)Nc2c3c(cc4c2CCC4)CCC3)c(Cl)c1CN(C)C [Example 28, 2-chloro-3-((dimethylamino)methyl)-N-((1,2,3,5,6,7-hexahydro-s-indacen-4-yl)carbamoyl)-4-methoxybenzenesulfonamide]	> 80%		
CN(C)Cc1cc(S(=O)(=O)NC(=O)Nc2c3c(cc4c2CCC4)CCC3)ccc1F [Example 6, 3-((dimethylamino)methyl)-4-fluoro-N-((1,2,3,5,6,7-hexahydro-s-indacen-4-yl)carbamoyl)benzenesulfonamide]	> 80%		
CN(C)Cc1ccc(F)c(S(=O)(=O)NC(=O)Nc2c3c(cc4c2CCC4)CCC3)c1F [Example 25, 3-((dimethylamino)methyl)-2,6-difluoro-N-((1,2,3,5,6,7-hexahydro-s-indacen-4-yl)carbamoyl)benzenesulfonamide]	> 80%	≥ 70%	
CN(C)Cc1c(F)ccc(S(=O)(=O)NC(=O)Nc2c3c(cc4c2CCC4)CCC3)c1F [Example 23, 3-((dimethylamino)methyl)-2,4-difluoro-N-((1,2,3,5,6,7-hexahydro-s-indacen-4-yl)carbamoyl)benzenesulfonamide]	> 80%	≥ 70%	
CC(C)Oc1ccc(S(=O)(=O)NC(=O)Nc2c3c(cc4c2CCC4)CCC3)cc1CN(C)C [Example 15, 3-((dimethylamino)methyl)-N-((1,2,3,5,6,7-hexahydro-s-indacen-4-yl)carbamoyl)-4-isopropoxybenzenesulfonamide]	> 80%		
CN(C)Cc1ccc(Cl)c(S(=O)(=O)NC(=O)Nc2c3c(cc4c2CCC4)CCC3)c1 [Example 10, 2-chloro-5-((dimethylamino)methyl)-N-((1,2,3,5,6,7-hexahydro-s-indacen-4-yl)carbamoyl)benzenesulfonamide]	> 80%		
CN(C)Cc1ccc(N)c(S(=O)(=O)NC(=O)Nc2c3c(cc4c2CCC4)CCC3)c1 [Example 12, 2-amino-5-((dimethylamino)methyl)-N-((1,2,3,5,6,7-hexahydro-s-indacen-4-yl)carbamoyl)benzenesulfonamide]	20 to 80%		
CN(C)Cc1cc(S(=O)(=O)NC(=O)Nc2c3c(cc4c2CCC4)CCC3)ccc1OCc1ccccc1 [Example 4]			inhibition at 1 µM (NLRP3 [1]; J774.A1, read-out: inhibition of IL-1β release, 1 µM compound, LPS + 5 mM ATP or 10 µM Nig, compared with the positive control): > 80%
CN(C)Cc1cc(S(=O)(=O)NC(=O)Nc2c3c(cc4c2CCC4)CCC3)ccc1N [Example 7, 4-amino-3-((dimethylamino)methyl)-N-((1,2,3,5,6,7-hexahydro-s-indacen-4-yl)carbamoyl)benzenesulfonamide]	> 80%		
CN(C)Cc1cc(S(=O)(=O)NC(=O)Nc2c3c(cc4c2CCC4)CCC3)ccc1Cl [Example 8, 4-chloro-3-((dimethylamino)methyl)-N-((1,2,3,5,6,7-hexahydro-s-indacen-4-yl)carbamoyl)benzenesulfonamide]	20 to 80%		
CN(C)Cc1cccc(S(=O)(=O)NC(=O)Nc2c3c(cc4c2CCC4)CCC3)c1[N+](=O)[O-] [Example 18, 3-((dimethylamino)methyl)-N-((1,2,3,5,6,7-hexahydro-s-indacen-4-yl)carbamoyl)-2-nitrobenzenesulfonamide]	> 80%	≥ 70%	
CN(C)Cc1cc(S(=O)(=O)NC(=O)Nc2c3c(cc4c2CCC4)CCC3)ccc1OC(F)(F)F [Example 9, 3-((dimethylamino)methyl)-N-((1,2,3,5,6,7-hexahydro-s-indacen-4-yl)carbamoyl)-4-(trifluoromethoxy)benzenesulfonamide]	20 to 80%		
CN(C)Cc1cccc(S(=O)(=O)NC(=O)Nc2c3c(cc4c2CCC4)CCC3)c1F [Example 24, 3-((dimethylamino)methyl)-2-fluoro-N-((1,2,3,5,6,7-hexahydro-s-indacen-4-yl)carbamoyl)benzenesulfonamide]	> 80%	≥ 70%	
CCOc1ccc(S(=O)(=O)NC(=O)Nc2c3c(cc4c2CCC4)CCC3)cc1CN(C)C [Example 14, 3-((dimethylamino)methyl)-4-ethoxy-N-((1,2,3,5,6,7-hexahydro-s-indacen-4-yl)carbamoyl)benzenesulfonamide]	> 80%	≥ 70%	
